Source: patent publication US8921559B2, “4-substituted-cyclohexylamino-4-piperidinyl-acetamide antagonists of CCR2” (Janssen Pharmaceutica NV, priority 2010, dated 2014)
Counter-ions that a name gives are not always drawn.

Molecular target: CCR2 (Homo sapiens (Human), UniProt P41597)
Assay: MCP-1 Receptor Binding Assay in THP-1 Cells
Settings: 0.5 nM 125I labeled MCP-1, 2 hours at 30° C., average of the two most similar values where more than one IC50, read-out: Inhibition of MCP-1 Binding IC50 CCR2 Binding
Description: Compounds of the invention were subjected to various representative biological tests. […] MCP-1 Receptor Binding Assay in THP-1 Cells Human monocytic cell line THP-1 cells were obtained from American Type Culture Collection (Manassas, Va., USA). The THP-1 cells were grown in RPMI-1640 (RPMI: Roswell Park Memorial Institute Medium-cell culture growth media) supplemented with 10% fetal bovine serum in a humidified 5% CO2 atmosphere at 37° C. The cell density was maintained between […].
THP-1 (cells were incubated with 0.5 nM ^125I labeled MCP-1 (Perkin-Elmer Life Sciences, Inc. Boston, Mass.) in the presence of varying concentrations of either unlabeled MCP-1 (R & D Systems, Minneapolis, Minn.) or test compound for 2 hours at 30° C. in a 96 well plate. Cells were then harvested onto a filter plate, dried, and 20 μL of Microscint 20 was added to each well. Plates were counted in a TopCount NXT, Microplate Scintillation & Luminescence Counter (Perkin-Elmer Life Sciences, Inc. Boston, Mass.). Blank values (buffer only) were subtracted from all values and drug treated values were compared to vehicle treated values. 1 μM cold MCP-1 was used for nonspecific binding.

CCR2, sequence (P41597 other isoform, or with tags, fused parts or gaps isoform P41597-2): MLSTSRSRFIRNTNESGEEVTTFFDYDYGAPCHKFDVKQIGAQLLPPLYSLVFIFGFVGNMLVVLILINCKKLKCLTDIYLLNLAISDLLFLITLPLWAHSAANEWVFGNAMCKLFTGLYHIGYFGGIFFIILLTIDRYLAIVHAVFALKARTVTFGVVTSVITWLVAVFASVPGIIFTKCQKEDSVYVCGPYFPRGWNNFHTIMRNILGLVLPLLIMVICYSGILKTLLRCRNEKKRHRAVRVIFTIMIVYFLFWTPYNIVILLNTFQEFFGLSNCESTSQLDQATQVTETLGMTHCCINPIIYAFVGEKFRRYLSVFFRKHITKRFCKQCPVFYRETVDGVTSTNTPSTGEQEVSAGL

Row | SMILES | IC50
1 | NC(=O)C(NC1CCC(c2c[nH]c3ccncc23)CC1)C1CCN(C(=O)/C=C/c2ccc(F)cc2)CC1 (single isomer, unassigned) [Example 47a, 2-[4-(1H-pyrrolo[3,2-c]pyridin-3-yl)cyclohexyl]amino-2-[1-(trans-4-fluorocinnamoyl)-piperidin-4-yl]-acetamide] | 405 nM
2 | O=C(O)C(N[C@H]1CC[C@H](c2c[nH]c3ccccc32)CC1)C1CCN(C(=O)/C=C/c2cc(F)cc(F)c2)CC1 (stereo partly drawn) [Example 25, 2-[4-(1H-Indol-3-yl)-trans-cyclohexylamino]-2-[1-(trans-3,5-difluorocinnamoyl)-piperidin-4-yl]-acetic acid hydrochloride] | 220 nM
3 | NC(=O)C(NC1CCC(c2c[nH]c3ccccc23)CC1)C1CCN(C(=O)Nc2cc(F)cc(F)c2)CC1 (centres unmarked) [Example 30, 2-[4-(1H-Indol-3-yl)-cyclohexylamino]-2-[N-(3,5-difluorophenyl)piperidine-1-carboxamid-4-yl]-acetamide] | 708 nM
4 | NC(=O)C(N[C@H]1CC[C@H](c2c[nH]c3ccncc32)CC1)C1CCN(C(=O)/C=C/c2cc(F)c(F)c(F)c2)CC1 (stereo partly drawn) [Example 41, R,S-2-[trans-4-(1H-pyrrolo[3,2-c]pyridin-3-yl)cyclohexyl]amino-2-[1-(trans-3,4,5-trifluorocinnamoyl)-piperidin-4-yl]-acetamide] | 83 nM
5 | NC(=O)C(NC1CCC(c2c[nH]c3ncccc23)CC1)C1CCN(C(=O)/C=C/c2cc(F)cc(F)c2)CC1 (stereo not drawn) [Example 46, R,S-2-[4-(1H-pyrrolo[2,3-b]pyridin-3-yl)cyclohexyl]amino-2-[1-(trans-3,5-difluorocinnamoyl)-piperidin-4-yl]-acetamide] | 330 nM
6 | NC(=O)C(NC1CCC(c2c[nH]c3ccccc23)CC1)C1CCN(C(=O)/C=C/c2ccc3c(c2)CCC3)CC1 (stereo not drawn) [Example 12, 2-[4-(1H-Indol-3-yl)-cyclohexylamino]-2-[1-(trans-3-indan-5-ylprop-2-enoyl)piperidin-4-yl]-acetamide] | 120 nM
7 | COC(=O)C(N[C@H]1CC[C@H](c2c[nH]c3ccccc32)CC1)C1CCN(C(=O)/C=C/c2cc(F)cc(F)c2)CC1 (stereo partly drawn) [Example 24, Methyl 2-[4-(1H-indol-3-yl)-trans-cyclohexylamino]-2-[1-(trans-3,5-difluorocinnamoyl)piperidin-4-yl]-acetate] | 390 nM
8 | NC(=O)C(NC1CCC(c2c[nH]c3ncccc23)CC1)C1CCN(C(=O)/C=C/c2cc(F)c(F)c(F)c2)CC1 (stereo not drawn) [Example 44, 2-[4-(1H-pyrrolo[2,3-b]pyridin-3-yl)cyclohexyl]amino-2-[1-(trans-3,4,5-trifluorocinnamoyl)-piperidin-4-yl]-acetamide] | 132 nM
9 | NC(=O)C(NC1CCC(c2c[nH]c3ccccc23)CC1)C1CCN(C(=O)/C=C/c2ccc(F)cc2)CC1 (stereo not drawn) [Example 6, 2-[4-(1H-Indol-3-yl)-cyclohexylamino]-2-[1-(trans-4-fluorocinnamoyl)-piperidin-4-yl]-acetamide] | 19 nM
10 | NC(=O)C(NC1CCC(c2c[nH]c3ccccc23)CC1)C1CCN(C(=O)/C=C/c2ccc(C(F)(F)F)cc2)CC1 (stereo not drawn) [Example 13, 2-[4-(1H-Indol-3-yl)-cyclohexylamino]-2-[1-(trans-4-{trifluoromethyl}-cinnamoyl)piperidin-4-yl]-acetamide] | 136 nM
11 | O=C(NO)C(NC1CCC(c2c[nH]c3ccccc23)CC1)C1CCN(C(=O)/C=C/c2cc(F)c(F)c(F)c2)CC1 (stereo not drawn) [Example 51, N-Hydroxy-2-{[4-(1H-Indol-3-yl)-cyclohexylamino]-2-[1-(trans-3,4,5-trifluorocinnamoyl)-piperidin-4-yl]}-acetamide] | 665 nM
12 | NC(=O)C(NC1CCC(c2c[nH]c3ccccc23)CC1)C1CCN(C(=O)Nc2ccc(F)c(F)c2)CC1 (centres unmarked) [Example 32, 2-[4-(1H-Indol-3-yl)-cyclohexylamino]-2-[N-(3,4-difluorophenyl)piperidine-1-carboxamid-4-yl]-acetamide] | 807 nM
13 | O=C(O)C(N[C@H]1CC[C@@H](c2c[nH]c3ccccc32)CC1)C1CCN(C(=O)Nc2ccc(Cl)c(Cl)c2)CC1 (stereo partly drawn) [Example 28, 2-[4-(1H-Indol-3-yl)-cis-cyclohexylamino]-2-[N-(3,4-dichlorophenyl)-piperidine-1-carboxamid-4-yl]-acetic acid hydrochloride] | 320 nM
14 | NC(=O)C(NC1CCC(c2c[nH]c3cccnc23)CC1)C1CCN(C(=O)Nc2ccc(Cl)c(Cl)c2)CC1 (stereo not drawn) [Example 42, 2-[trans-4-(1H-pyrrolo[3,2-b]pyridin-3-yl)cyclohexyl]amino-2-[N-(3,4-dichlorophenyl)piperidine-1-carboxamid-4-yl]-acetamide] | 87 nM
15 | NC(=O)C(NC1CCC(c2c[nH]c3ccccc23)CC1)C1CCN(C(=O)/C=C/c2ccc(OC(F)(F)F)cc2)CC1 (stereo not drawn) [Example 21, 2-[4-(1H-Indol-3-yl)-cyclohexylamino]-2-[1-(trans-4-(trifluoromethoxy)cinnamoyl)piperidin-4-yl]-acetamide] | 492 nM
16 | NC(=O)C(NC1CCC(c2c[nH]c3ccccc23)CC1)C1CCN(C(=O)/C=C/c2ccc(Cl)cc2)CC1 (stereo not drawn) [Example 14, 2-[4-(1H-Indol-3-yl)-cyclohexylamino]-2-[1-(trans-4-chloro-cinnamoyl)piperidin-4-yl]-acetamide] | 130 nM
17 | NC(=O)C(NC1CCC(c2c[nH]c3ccccc23)CC1)C1CCN(C(=O)Nc2ccc(F)cc2)CC1 (centres unmarked) [Example 29, 2-[4-(1H-Indol-3-yl)-cyclohexylamino]-2-[N-(4-fluorophenyl)piperidine-1-carboxamid-4-yl]-acetamide] | 669 nM
18 | NC(=O)C(NC1CCC(c2c[nH]c3ccccc23)CC1)C1CCN(C(=O)/C=C/c2ccc(F)c(F)c2)CC1 (stereo not drawn) [Example 5, 2-[4-(1H-Indol-3-yl)-cyclohexylamino]-2-[1-(trans-3,4-difluorocinnamoyl)-piperidin-4-yl]-acetamide] | 21 nM
19 | NC(=O)C(NC1CCC(c2c[nH]c3ccncc23)CC1)C1CCN(C(=O)Nc2ccc(Cl)c(Cl)c2)CC1 (centres unmarked) [Example 40, 2-[4-(1H-pyrrolo[3,2-c]pyridin-3-yl)cyclohexyl]amino-2-[N-(3,4-dichlorophenyl)piperidine-1-carboxamid-4-yl]-acetamide] | 40 nM
20 | NC(=O)C(NC1CCC(c2c[nH]c3cccnc23)CC1)C1CCN(C(=O)/C=C/c2cc(F)c(F)c(F)c2)CC1 (single isomer, unassigned) [Example 39a, 2-[4-(1H-pyrrolo[3,2-b]pyridin-3-yl)cyclohexyl]amino-2-[1-(trans-3,4,5-trifluorocinnamoyl)-piperidin-4-yl]-acetamide] | 25 nM
21 | NC(=O)C(NC1CCC(c2c[nH]c3ccccc23)CC1)C1CCN(C(=O)Nc2cccc(C(F)(F)F)c2)CC1 (centres unmarked) [Example 16, 2-[4-(1H-Indol-3-yl)-cyclohexylamino]-2-[N-(3-{trifluoromethyl}-phenyl)piperidine-1-carboxamid-4-yl]-acetamide] | 150 nM
22 | Cc1cccc(NC(=O)N2CCC(C(NC3CCC(c4c[nH]c5cccnc45)CC3)C(N)=O)CC2)c1 (centres unmarked) [Example 48, 2-[4-(1H-pyrrolo[3,2-b]pyridin-3-yl)cyclohexyl]amino-2-[N-(3-tolyl)piperidine-1-carboxamid-4-yl]-acetamide] | 590 nM
23 | NC(=O)C(NC1CCC(c2c[nH]c3ccccc23)CC1)C1CCN(C(=O)/C=C/c2ccc3c(c2)CCCO3)CC1 (centres unmarked) [Example 33, 2-[4-(1H-indol-3-yl)-cyclohexylamino]-2-{1-[(2E)-3-(3,4-dihydro-2H-chromen-6-yl)prop-2-enoyl]piperidin-4-yl}acetamide] | 960 nM
24 | NC(=O)C(NC1CCC(c2c[nH]c3ccccc23)CC1)C1CCN(C(=O)/C=C/c2cccc(F)c2)CC1 (stereo not drawn) [Example 7, 2-[4-(1H-Indol-3-yl)-cyclohexylamino]-2-[1-(trans-3-fluorocinnamoyl)-piperidin-4-yl]-acetamide] | 23 nM
25 | CSc1cccc(NC(=O)N2CCC(C(NC3CCC(c4c[nH]c5ccccc45)CC3)C(N)=O)CC2)c1 (centres unmarked) [Example 31, 2-[4-(1H-Indol-3-yl)-cyclohexylamino]-2-[N-(3-{methysulfanyl}phenyl)-piperidine-1-carboxamid-4-yl]-acetamide] | 710 nM
26 | CCOC(=O)c1ccc(NC(=O)N2CCC(C(NC3CCC(c4c[nH]c5ccccc45)CC3)C(N)=O)CC2)cc1 (centres unmarked) [Example 22, 2-[4-(1H-Indol-3-yl)-cyclohexylamino]-2-[N-(4-{ethoxycarbonyl}-phenyl)piperidine-1-carboxamid-4-yl]-acetamide] | 553 nM
27 | COC(=O)C(NC1CCC(c2c[nH]c3ccccc23)CC1)C1CCN(C(=O)/C=C/c2cc(F)c(F)c(F)c2)CC1 (stereo not drawn) [Example 49a, Methyl 2-[4-(1H-indol-3-yl)-trans-cyclohexylamino]-2-[1-(trans-3,4,5-trifluorocinnamoyl)piperidin-4-yl]-acetate] | 410 nM
28 | NC(=O)C(NC1CCC(c2c[nH]c3ccccc23)CC1)C1CCN(C(=O)Nc2ccc(Cl)c(Cl)c2)CC1 (single isomer, unassigned) [Example 4a, 2-[4-(1H-Indol-3-yl)-cyclohexylamino]-2-[N-(3,4-dichlorophenyl)piperidine-1-carboxamid-4-yl]-acetamide] | 470 nM
29 | NC(=O)C(NC1CCC(c2c[nH]c3cccnc23)CC1)C1CCN(C(=O)/C=C/c2cc(F)cc(F)c2)CC1 (stereo not drawn) [Example 45, R,S-2-[trans-4-(1H-pyrrolo[3,2-b]pyridin-3-yl)cyclohexyl]amino-2-[1-(trans-3,5-difluorocinnamoyl)-piperidin-4-yl]-acetamide] | 130 nM
